In experiment [1] the target is T1, SARS-CoV-2 PLpro (nsp3 1564–1878) (Severe acute respiratory syndrome coronavirus 2, UniProt P0DTD1). Description: biochemical. More on the design: FRET-quenched peptide (Pro3) cleavage by PLpro, 10 min pre-incubation, slope over 20 min, normalised to no-compound control. Particulars: low concentration screen, read-out: % of control remaining.
In experiment [2] the target is T1, SARS-CoV-2 PLpro (nsp3 1564–1878). Put plainly: biochemical. To be noted: high concentration screen, read-out: % of control remaining. More on the design: FRET-quenched peptide (Pro3) cleavage by PLpro, 10 min pre-incubation, slope over 20 min, normalised to no-compound control.

The structures appear in SMILES notation. Where a name gives a salt, the structure may show the parent alone. Read-outs that look alike come from different tables or passages of the source.

Take `CCC(C)(C)C(=O)N(O)Cc1ccccc1` [RIPA-56]: the remaining activity at 1.25 µM in experiment [1] (Well no.=6210) was 90.8%. In addition, in experiment [2] (Well no.=6210), the remaining activity at 3.75 µM worked out at 92.1%.
As for `CCn1cc(-c2ccc3c(c2)CCN3C(=O)Cc2cccc(OC(F)(F)F)c2)c2c(N)ncnc21` [RIPK1-IN-7], the remaining activity at 1.25 µM in experiment [1] (Well no.=6824) came to 94.8%. Also, in experiment [2] (Well no.=6824), the remaining activity at 3.75 µM was 94.4%.
As to `OCc1ccc(-c2ccc(-c3ccc(CO)s3)o2)s1` [RITA (NSC 652287)], in experiment [1] (Well no.=4741), the remaining activity at 1.25 µM stood at 103%. Besides, the remaining activity at 3.75 µM in experiment [2] (Well no.=4741) turned out to be 108%.
Take `COc1cc(C(N)=O)ccc1NC(=O)[C@@H]1N[C@@H](CC(C)(C)C)[C@@]2(C(=O)Nc3cc(Cl)ccc32)[C@H]1c1cccc(Cl)c1F` [RO8994]: the remaining activity at 1.25 µM in experiment [1] (Well no.=7108) was determined as 92.4%. Besides, in experiment [2] (Well no.=7108), the remaining activity at 3.75 µM came out at 89.6%.
On to `[N-]=[N+]=N[C@]1(CO)O[C@@H](n2ccc(N)nc2=O)[C@@H](O)[C@@H]1O` [RO-9187], for which, in experiment [1] (Well no.=7762), the remaining activity at 1.25 µM was determined as 98.5%. Besides, the remaining activity at 3.75 µM in experiment [2] (Well no.=7762) worked out at 101%.
In the case of `C[C@@H](N)[C@H]1CC[C@H](C(=O)Nc2ccncc2)CC1` [ROCK Inhibitor, Y-27632], the remaining activity at 1.25 µM in experiment [1] (Well no.=2452) came out at 99.4%. Moreover, in experiment [2] (Well no.=2452), the remaining activity at 3.75 µM was determined as 98.5%.
In the case of `O=C(CBr)N1CC([N+](=O)[O-])([N+](=O)[O-])C1` [RRx-001], in experiment [1] (Well no.=8632), the remaining activity at 1.25 µM was 105%. In experiment [2] (Well no.=8632), the remaining activity at 3.75 µM came out at 98.9%.
On to `O=C1Nc2ccccc2C2(CCN(CCc3ccc(C(F)(F)F)cc3)CC2)O1` [RS102895 (hydrochloride)], for which the remaining activity at 1.25 µM in experiment [1] (Well no.=8003) was found to be 98.5%; in experiment [1] (Well no.=8275) it was 106%. The remaining activity at 3.75 µM in experiment [2] (Well no.=8003) turned out to be 93.3%; in experiment [2] (Well no.=8275), 104%.
On to `CC(C)c1cc(-c2ccc(F)c3ccccc23)nc(N)n1` [RS 127445], for which, in experiment [1] (Well no.=8477), the remaining activity at 1.25 µM was found to be 107%. Besides, in experiment [2] (Well no.=8477), the remaining activity at 3.75 µM amounted to 105%.
For the compound `Cc1ccc2c(c1)C1(CCN(CCc3nc(-c4ccccc4)oc3C)CC1)OC(=O)N2` [RS 504393], in experiment [1] (Well no.=8391), the remaining activity at 1.25 µM amounted to 99.2%. Moreover, the remaining activity at 3.75 µM in experiment [2] (Well no.=8391) turned out to be 95.2%.
As for `CC(C)c1cc(-c2ccc(F)c3ccccc23)nc(N)n1` [RS-127445], the remaining activity at 1.25 µM in experiment [1] (Well no.=4683) was determined as 106%. Further, the remaining activity at 3.75 µM in experiment [2] (Well no.=4683) was found to be 102%.
As for `CC(=O)O[C@@H]1[C@@H](OC(C)=O)[C@@H](O)[C@H](Oc2c(-c3ccc(O)cc3)oc3cc(O)cc(O)c3c2=O)O[C@H]1C` [RSK Inhibitor, SL0101], in experiment [1] (Well no.=2635), the remaining activity at 1.25 µM amounted to 95.6%. Moreover, the remaining activity at 3.75 µM in experiment [2] (Well no.=2635) was 97.4%.
Regarding `COc1ccc2[nH]cc(C3=CCNCC3)c2c1` [RU 24969], the remaining activity at 1.25 µM in experiment [1] (Well no.=7997) was 104%. Besides, the remaining activity at 3.75 µM in experiment [2] (Well no.=7997) worked out at 102%.
`OCCC#Cc1nc(-c2ccc(F)cc2)c(-c2ccncc2)n1CCCc1ccccc1` [RWJ-67657]: in experiment [1] (Well no.=2987), the remaining activity at 1.25 µM was 94.7%. Further, the remaining activity at 3.75 µM in experiment [2] (Well no.=2987) came to 91.7%.
Regarding `COC1(C2=NCCN2)COc2ccccc2O1` (centres unmarked) [RX 821002 hydrochloride], in experiment [1] (Well no.=1208), the remaining activity at 1.25 µM was found to be 100%. For the same compound, in experiment [2] (Well no.=1208), the remaining activity at 3.75 µM was determined as 98.7%.
`CC(=O)SCC(Cc1ccccc1)C(=O)NCC(=O)OCc1ccccc1` (centres unmarked) [Racecadotril]: in experiment [1] (Well no.=2191), the remaining activity at 1.25 µM was 97.6%. The remaining activity at 3.75 µM in experiment [2] (Well no.=2191) is 95.7%.
`C[C@@H]1C[C@H]2O[C@@H]2/C=C\C=C\C(=O)Cc2c(Cl)c(O)cc(O)c2C(=O)O1` [Radicicol]: the remaining activity at 1.25 µM in experiment [1] (Well no.=3124) was determined as 95.9%. Also, the remaining activity at 3.75 µM in experiment [2] (Well no.=3124) turned out to be 98.1%.
`O=C(c1ccc(OCCN2CCCCC2)cc1)c1c(-c2ccc(O)cc2)sc2cc(O)ccc12` [Raloxifene hydrochloride]: the remaining activity at 1.25 µM in experiment [1] (Well no.=1204) is 97.4%. For the same compound, the remaining activity at 3.75 µM in experiment [2] (Well no.=1204) amounted to 99.2%.
On to `O=C(c1ccc(OCCN2CCCCC2)cc1)c1c(-c2ccc(O)cc2)sc2cc(O)ccc12` [Raloxifene], for which the remaining activity at 1.25 µM in experiment [1] (Well no.=1662) stood at 107%. Moreover, the remaining activity at 3.75 µM in experiment [2] (Well no.=1662) turned out to be 108%.
Consider `Cc1nc(=O)c2cc(CN(C)c3ccc(C(=O)N[C@@H](CCC(=O)O)C(=O)O)s3)ccc2[nH]1` [Raltitrexed (Tomudex)], for which, in experiment [1] (Well no.=4723), the remaining activity at 1.25 µM was 115%. For the same compound, the remaining activity at 3.75 µM in experiment [2] (Well no.=4723) came out at 106%.
Regarding `Cc1nc(=O)c2cc(CN(C)c3ccc(C(=O)N[C@@H](CCC(=O)O)C(=O)O)s3)ccc2[nH]1` [Raltitrexed], the remaining activity at 1.25 µM came out at 98.3% in experiment [1] (Well no.=6308) and 104% in experiment [1] (Well no.=7452). In addition, the remaining activity at 3.75 µM in experiment [2] (Well no.=6308) came out at 99.3%; in experiment [2] (Well no.=7452), 99.7%.
In the case of `CCC(=O)NCC[C@@H]1CCc2ccc3c(c21)CCO3` [Ramelteon], the remaining activity at 1.25 µM in experiment [1] (Well no.=8525) was 104%. The remaining activity at 3.75 µM in experiment [2] (Well no.=8525) was found to be 106%.
On to `CCOC(=O)[C@H](CCc1ccccc1)N[C@@H](C)C(=O)N1[C@H](C(=O)O)C[C@@H]2CCC[C@@H]21` [Ramipril], for which the results for the remaining activity at 1.25 µM in experiment [1] (Well no.=2195) and in experiment [1] (Well no.=7446) were 94.4% and 99.8%, respectively. Besides, the remaining activity at 3.75 µM in experiment [2] (Well no.=2195) is 93.2%; in experiment [2] (Well no.=7446), 98.5%.
`Cn1cc(C(=O)[C@@H]2CCc3[nH]cnc3C2)c2ccccc21` [Ramosetron (Hydrochloride)]: in experiment [1] (Well no.=7339), the remaining activity at 1.25 µM was 102%. In experiment [2] (Well no.=7339), the remaining activity at 3.75 µM came out at 103%.
Take `CNC(=C[N+](=O)[O-])NCCSCc1ccc(CN(C)C)o1` [Ranitidine (hydrochloride)]: in experiment [1] (Well no.=6609), the remaining activity at 1.25 µM was determined as 102%. Besides, the remaining activity at 3.75 µM in experiment [2] (Well no.=6609) is 104%.
As for `CNC(=C[N+](=O)[O-])NCCSCc1ccc(CN(C)C)o1` [Ranitidine hydrochloride], the remaining activity at 1.25 µM in experiment [1] (Well no.=1304) was 101%. In addition, the remaining activity at 3.75 µM in experiment [2] (Well no.=1304) came out at 101%.
Take `CNC(=C[N+](=O)[O-])NCCSCc1ccc(CN(C)C)o1` [Ranitidine.HCl]: in experiment [1] (Well no.=1642), the remaining activity at 1.25 µM was determined as 105%. In experiment [2] (Well no.=1642), the remaining activity at 3.75 µM stood at 105%.
`COc1ccccc1OCC(O)CN1CCN(CC(=O)Nc2c(C)cccc2C)CC1` (centres unmarked) [Ranolazine dihydrochloride]: the remaining activity at 1.25 µM in experiment [1] (Well no.=1254) worked out at 108%. Further, the remaining activity at 3.75 µM in experiment [2] (Well no.=1254) amounted to 106%.
With `CO[C@H]1C[C@@H]2CC[C@@H](C)[C@@](O)(O2)C(=O)C(=O)N2CCCC[C@H]2C(=O)O[C@H]([C@H](C)C[C@@H]2CC[C@@H](O)[C@H](OC)C2)CC(=O)[C@H](C)/C=C(\C)[C@@H](O)[C@@H](OC)C(=O)[C@H](C)C[C@H](C)/C=C/C=C/C=C/1C` [Rapamycin], the figures for the remaining activity at 1.25 µM in experiment [1] (Well no.=1557), in experiment [1] (Well no.=2555) and in experiment [1] (Well no.=3126) were 99.1%, 93.5% and 102%, respectively. Further, the results for the remaining activity at 3.75 µM in experiment [2] (Well no.=1557), in experiment [2] (Well no.=2555) and in experiment [2] (Well no.=3126) were 97.9%, 91.9% and 106%, respectively.
